Data published in patent publication US20140219931A1, “P-MENTHANE-3,8-DIOL ISOMER MIXTURE, COOLING SENSATION COMPOSITION COMPRISING THE SAME, AND PRODUCT COMPRISING THE COOLING SENSATION COMPOSITION” (TAKASAGO INTERNATIONAL CORPORATION, priority 2011, published 2014).

Key:
[1] = test system: mouth of professional panelists; assay: Test Experiment 1: sensory evaluation of cooling sensation strength in the mouth; format: in vivo, human; conditions: 180 ppm aqueous solution in the mouth, 10 panelists; relative score, Comparative Example 1 taken as 3
Experimental: (§1) [Test Experiment 1] Sensory Evaluation for Comparison of Cooling Sensation Strength between (1S)-p-Menthane-3,8-diol Isomer Mixture, (1RS)-p-Menthane-3,8-diol Isomer Mixture, and (1R)-p-Menthane-3,8-diol Isomer Mixture Aqueous solutions containing 180 ppm of the (1S)-p-menthane-3,8-diol isomer mixture, the (1RS)-p-menthane-3,8-diol isomer mixture, and the (1R)-p-menthane-3,8-diol isomer mixture obtained in Example 1, Example 2, and Comparative Example 1, respectively, were prepared. Sensory evaluation was conducted in the mouth on these 180 ppm aqueous solutions by 10 professional panelists having 5-year or longer experience.

[2] = test system: mouth of professional panelists; assay: Test Experiment 2: sensory evaluation of cooling sensation persistence in the mouth; format: in vivo, human; conditions: for Cooling sensation persistence time: 180 ppm aqueous solution retained in the mouth 30 seconds, then spit out, time until cooling sensation disappeared, average of 10 panelists; for persistence of cooling sensation effect relative to the (1R)-p-menthane-3,8-diol isomer mixture: 180 ppm aqueous solution, from Table 2
Experimental: as §1, with “2]” for “1]”, “Persistence” for “Strength”, “experience. In the sensory evaluation, each 180 ppm aqueous solution was retained in the month for 30 seconds, and then spit out. After that, the time taken until the cooling sensation disappeared was measured, and the average was calculated to evaluate the effect.” for “experience.”

## C[C@@H]1CCC(C(C)(C)O)C(O)C1 (mixture of isomers) [Comparative Example 1, (1R)-p-menthane-3,8-diol isomer mixture, reference compound]
[1]
  Average cooling sensation strength score: 3
[2]
  Cooling sensation persistence time: 4.3 min

## C[C@H]1CCC(C(C)(C)O)C(O)C1 (mixture of isomers) [Example 1, (1S)-p-menthane-3,8-diol isomer mixture]
[1]
  Average cooling sensation strength score: 15
[2]
  Cooling sensation persistence time: 15.5 min
  persistence of cooling sensation effect relative to the (1R)-p-menthane-3,8-diol isomer mixture: approximately 3.6 times

## CC1CCC(C(C)(C)O)C(O)C1 (racemic) [Example 2, (1RS)-p-menthane-3,8-diol isomer mixture]
[1]
  Average cooling sensation strength score: 9
[2]
  Cooling sensation persistence time: 9.8 min
  persistence of cooling sensation effect relative to the (1R)-p-menthane-3,8-diol isomer mixture: approximately 2.3 times
